Test results as given in patent US9789096B2, “Methods and compositions for selective and targeted cancer therapy” (Board of Regents of the University of Texas System, priority 2013, dated 2017).
Read-outs that look alike come from different tables or passages of the source.

What was measured:
[1] = system: HBEC30KT; test: Cell viability (ATP, Cell Titer Glo, 4 days), HBEC30KT; type: cell-based, human; details: Homo sapiens
[2] = system: H1155; test: Cell viability dose-response, H1155; type: cell-based; details: Homo sapiens, NCI-H1155
Method: (§1) FIG. 6A. […] Cell viability is plotted vs. compound concentration. Compound was added to cells plated at 15% confluence in 96-well plates in RPMI-1640 media supplemented with 5% Fetal Bovine Serum and 2 mM L-Glutamine. After 4 days of incubation, ATP levels were measured using Cell Titer Glo (Promega). Data are presented as the average of 2 replicates ±SEM.
(§2) Selectivity may be measured by the half maximal inhibitory concentration (IC50), which, as used herein, is a measure of the effectiveness of a compound in killing cells. This quantitative measure indicates how much of a particular compound is needed to kill a particular cell population by half (e.g., as indicated by the amount of ATP). […] The IC50 can be determined by constructing a dose-response curve. The lower the IC50, the higher the potency, and the greater the difference between IC50 values for different cell lines (e.g., sensitive lines vs. insensitive lines, and sensitive lines vs. normal lines) the greater the selectivity. […]
(§3) With this information, we synthesized and tested a series of small molecules derived in conception from the oxalamide and chromone scaffold including N-acyl ureas, as shown in Tables 6-8. Each compound was tested in a 12-point dose-response study starting at 50 micromolar and decreasing in 3-fold increments to sub-nanomolar concentrations, in duplicate. Additionally, one or more additional cell line was tested in the same way.

[3] = system: H1395; test: Cell viability dose-response, H1395; type: cell-based; details: Homo sapiens, NCI-H1395
Method: as §1, §2, §3

[4] = system: H1819; test: Cell viability dose-response, H1819; type: cell-based, human
Method in brief: (§4)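 Viability read as total ATP (Cell Titer Glo) following 4 days' compound exposure, with IC50 derived from dose-response curves. Duplicate 12-point series, top concentration 50 micromolar with 3-fold steps, on cells seeded at 15% confluence in RPMI-1640, 5% FBS, 2 mM L-glutamine.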

[5] = system: H1993; test: Cell viability dose-response, H1993; type: cell-based; details: Homo sapiens, NCI-H1993
Method: as §1, §2, §3

[6] = system: H2009; test: Cell viability dose-response, H2009; type: cell-based, human; details: Homo sapiens, NCI-H2009
Method in brief: (§5)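 Cells were plated at 15% confluence in RPMI-1640 with 5% FBS and 2 mM L-glutamine, then exposed to compound for 4 days. Viability was read as cellular ATP by CellTiter-Glo luminescence. Values are means of 2 replicates ±SEM, and IC50 comes from the dose-response curve.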

[7] = system: H2073; test: Cell viability dose-response, H2073; type: cell-based, human; details: Homo sapiens
Method in brief: as §5

[8] = system: H2122; test: Cell viability dose-response, H2122; type: cell-based, human
Method in brief: as §4

[9] = system: H460; test: Cell viability dose-response, H460; type: cell-based; details: Homo sapiens, NCI-H460
Method: as §1, §2, §3

[10] = system: HCC366; test: Cell viability dose-response, HCC366; type: cell-based; details: Homo sapiens
Method: as §1, §2, §3

[11] = system: HCC4017; test: Cell viability dose-response, HCC4017; type: cell-based, human; details: Homo sapiens
Method: as §1, §2, §3

[12] = system: HCC44; test: Cell viability dose-response, HCC44; type: cell-based, human; details: Homo sapiens
Method in brief: as §5

[13] = system: HCC95; test: Cell viability dose-response, HCC95; type: cell-based; details: Homo sapiens
Method: as §1, §2, §3

[14] = system: 12 lung adenocarcinoma cell lines; test: Proliferation of the panel of 12 lung adenocarcinoma cell lines; type: cell-based, human; details: FIG. 8E
Method: as §1
To discover selective agents, twelve cell lines of diverse genotype were selected for analysis. 108 lung cancer cell lines were initially clustered into six groups based on mRNA expression of genes that underwent frequent copy number variation. Two cell lines were chosen from each group for high throughput chemical screening. All 12 of the chosen cell lines were derived from lung adenocarcinomas, eliminating both lineage and histology as confounders. None of the cell lines chosen for screening harbored EGFR mutations or ALK rearrangements, so that the final set represented a collection of diverse lung adenocarcinoma genotypes for which there are no targeted therapy.
The proliferative impact of each compound in the library was assayed by analyzing total ATP four days after administration of 2.5 μM in a single well. This first pass yielded 15,843 toxins defined as a compound where ATP levels were […] three standard deviations below the mean for at least one cell line. For each of these putative toxins, the average effect on proliferation was retested on each cancer cell line and a non-cancerous immortalized HBEC line (control), yielding a confirmation dataset.
In addition, N-acyl benzothiazoles was also discovered, such as 4-amino-N-(6-methoxybenzo[d]thiazol-2-yl)benzamide (ATB). We compared the proliferation of 12 lung adenocarcinoma cell lines and three HBEC lines after the addition of ATB.
We subsequently synthesized various derivatives that are both selective and potent (Tables 1 and 2). One leading candidate is a benzothiazole, SW202857, that inhibits proliferation in three of 12 adenocarcinoma cell lines at concentrations less than 10 nM.

[15] = 12-point dose-response starting at 50 micromolar, 3-fold increments, in duplicate, read-out: toxicity data, HBEC30KT
[16] = 12-point dose-response starting at 50 micromolar, 3-fold increments, in duplicate, read-out: toxicity data, H1155
[17] = 12-point dose-response starting at 50 micromolar, 3-fold increments, in duplicate, read-out: toxicity data, H1395
[18] = 12-point dose-response starting at 50 micromolar, 3-fold increments, in duplicate, read-out: toxicity data, H1993
[19] = 12-point dose-response starting at 50 micromolar, 3-fold increments, in duplicate, read-out: toxicity data, H2009
[20] = NCI-H2073, 12-point dose-response starting at 50 micromolar, 3-fold increments, in duplicate, read-out: toxicity data, H2073
[21] = 12-point dose-response starting at 50 micromolar, 3-fold increments, in duplicate, read-out: toxicity data, H460
[22] = 12-point dose-response starting at 50 micromolar, 3-fold increments, in duplicate, read-out: toxicity data, HCC366
[23] = HCC4017, 12-point dose-response starting at 50 micromolar, 3-fold increments, in duplicate, read-out: toxicity data, HCC4017
[24] = HCC44, 12-point dose-response starting at 50 micromolar, 3-fold increments, in duplicate, read-out: toxicity data, HCC44
[25] = 12-point dose-response starting at 50 micromolar, 3-fold increments, in duplicate, read-out: toxicity data, HCC95
[26] = Tables 3 and 4, read-out: HBEC30KT IC50
[27] = Tables 3 and 4, read-out: IC50 (uM) vs indicated non-small cell lung cancer cell line H1155
[28] = Tables 3 and 4, read-out: IC50 (uM) vs indicated non-small cell lung cancer cell line H1395
[29] = Homo sapiens, NCI-H1819, Tables 3 and 4, read-out: IC50 (uM) vs indicated non-small cell lung cancer cell line H1819
[30] = Tables 3 and 4, read-out: IC50 (uM) vs indicated non-small cell lung cancer cell line H1993
[31] = Tables 3 and 4, read-out: IC50 (uM) vs indicated non-small cell lung cancer cell line H2009
[32] = NCI-H2073, Tables 3 and 4, read-out: IC50 (uM) vs indicated non-small cell lung cancer cell line H2073
[33] = Homo sapiens, NCI-H2122, Tables 3 and 4, read-out: IC50 (uM) vs indicated non-small cell lung cancer cell line H2122
[34] = Tables 3 and 4, read-out: IC50 (uM) vs indicated non-small cell lung cancer cell line H460
[35] = Tables 3 and 4, read-out: IC50 (uM) vs indicated non-small cell lung cancer cell line HCC366
[36] = HCC4017, Tables 3 and 4, read-out: IC50 (uM) vs indicated non-small cell lung cancer cell line HCC4017
[37] = HCC44, Tables 3 and 4, read-out: IC50 (uM) vs indicated non-small cell lung cancer cell line HCC44
[38] = Tables 3 and 4, read-out: IC50 (uM) vs indicated non-small cell lung cancer cell line HCC95

`COc1ccc(CCNC(=O)C(=O)Nc2ccc(Cl)cc2)cc1` [SW027951] was tested, and the IC50 [1, 15] was 50 µM, the IC50 [2, 16] was 50 µM and the IC50 [3, 17] was 50 µM. It also gave an IC50 ([4]; Homo sapiens, NCI-H1819, 12-point dose-response starting at 50 micromolar, 3-fold increments, in duplicate, read-out: toxicity data, H1819) of at least 50 µM, an IC50 [5, 18] of 50 µM and an IC50 [6, 19] of at least 50 µM. It also gave an IC50 [7, 20] of at least 50 µM, an IC50 ([8]; Homo sapiens, NCI-H2122, 12-point dose-response starting at 50 micromolar, 3-fold increments, in duplicate, read-out: toxicity data, H2122) of 0.15 µM and an IC50 [9, 21] of 1.34 µM. For the same compound, the IC50 [10, 22] was 50 µM, the IC50 [11, 23] was at least 50 µM and the IC50 [12, 24] was at least 50 µM. For the same compound, the IC50 [13, 25] was 0.09 µM.

Compound `COc1ccc(CCNC(=O)C(=O)Nc2cccc(Br)c2)cc1` [SW027952] has an IC50 [1, 15] of 19.8 µM, an IC50 [2, 16] of 50 µM and an IC50 [3, 17] of 50 µM. It also gave an IC50 ([4]; 12-point dose-response starting at 50 micromolar, 3-fold increments, in duplicate, read-out: toxicity data, H1819) of at least 50 µM, an IC50 [5, 18] of 50 µM and an IC50 [6, 19] of 11.3 µM. For the same compound, the IC50 [7, 20] was 17.5 µM, the IC50 ([8]; 12-point dose-response starting at 50 micromolar, 3-fold increments, in duplicate, read-out: toxicity data, H2122) was 1.04 µM and the IC50 [9, 21] was 50 µM. It also gave an IC50 [10, 22] of 50 µM, an IC50 [11, 23] of at least 50 µM and an IC50 [12, 24] of at least 50 µM. It also gave an IC50 [13, 25] of 0.24 µM.

`NC(=O)c1c(NC(=O)c2sc3ccccc3c2Cl)sc2c1CCCCC2` [SW155113] was tested, and the IC50 [1, 26] was 33 µM, the IC50 [2, 27] was 14.5 µM and the IC50 [3, 28] was 13.4 µM. For the same compound, the IC50 [4, 29] was 14 µM, the IC50 [5, 30] was 8.1 µM and the IC50 [6, 31] was 32 µM. The IC50 [7, 32] was 6 µM, the IC50 [8, 33] was 0.36 µM and the IC50 [9, 34] was 29 µM. For the same compound, the IC50 [10, 35] was 22.5 µM, the IC50 [11, 36] was 23 µM and the IC50 [12, 37] was 27 µM. It also gave an IC50 [13, 38] of 100 µM.

In the case of `COc1ccc2nc(NC(=O)c3ccc(OCc4ccccc4)cc3)sc2c1` [SW202773-1], the IC50 [1, 26] is reported as 24.9 µM, the IC50 [2, 27] is reported as 23.6 µM and the IC50 [3, 28] is reported as 25.9 µM. For the same compound, the IC50 [4, 29] was 42.9 µM, the IC50 [5, 30] was 21.7 µM and the IC50 [6, 31] was 16.6 µM. The IC50 [7, 32] was 0.268 µM, the IC50 [8, 33] was 0.0431 µM and the IC50 [9, 34] was 0.157 µM. It also gave an IC50 [10, 35] of 41.8 µM, an IC50 [11, 36] of 21.1 µM and an IC50 [12, 37] of 0.122 µM. The IC50 [13, 38] was 0.163 µM.

For `COc1ccc(C(=O)c2ccc(NC(=O)c3sc4ccccc4c3Cl)cc2)cc1` [SW202855-1], the IC50 [1, 26] was 24.3 µM, the IC50 [2, 27] was 46.1 µM and the IC50 [3, 28] was 28.4 µM. For the same compound, the IC50 [4, 29] was 32 µM, the IC50 [5, 30] was 17.8 µM and the IC50 [6, 31] was 13.9 µM. The IC50 [7, 32] was 36.2 µM, the IC50 [8, 33] was 18.3 µM and the IC50 [9, 34] was 28.8 µM. The IC50 [10, 35] was 49 µM, the IC50 [11, 36] was 15.7 µM and the IC50 [12, 37] was 25.4 µM. For the same compound, the IC50 [13, 38] was 9.84 µM.

With `CNC(=O)c1cccc(NC(=O)N2CCC(Oc3ccccc3Cl)CC2)c1` [compound 28c, reference compound] the “toxicity to the same 4 non-small cell lung cancer cell lines” value [14] was “toxic”.
